Source: paper PMC13244789, “Cutibacterium Adaptation to Life on Humans Provides a Potential C acnes Infection Biomarker” (The Journal of investigative dermatology, 2025)

Molecular target: T1, RoxP_1 (8His-TEV-RoxP_1, RoxP_1-tagless) (Cutibacterium acnes, UniProt Q6A6F6)
T1 construct: gene PPA1939; mature secreted protein; E. coli host, PelB signal peptide
Assay: native gel shift (Coomassie, TCE tryptophan protection)
Assay type: binding
Settings: HSB pH 7.4; weaker than hemin

T1 sequence (Q6A6F6 entry or part of it): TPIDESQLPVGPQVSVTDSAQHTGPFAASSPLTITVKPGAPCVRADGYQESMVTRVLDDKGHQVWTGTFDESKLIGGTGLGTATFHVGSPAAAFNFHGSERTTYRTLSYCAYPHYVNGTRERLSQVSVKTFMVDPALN

Compound: C=CC1=C(C)c2cc3[nH]c(cc4nc(cc5[nH]c(cc1n2)c(C)c5CCC(=O)O)C(CCC(=O)O)=C4C)c(C)c3C=C [protoporphyrin IX]
- native gel shift (Coomassie, TCE tryptophan protection): porphyrins revealed weaker binding to PPIX but no detectable binding to coproporphyrin III
